Entries after “also recorded” stand apart in the source; their conditions may differ. Like-named read-outs stand apart in the source and are kept apart here. Starred links: 1 amine or outer side, 2 acyl side, 3 side chain; linkers in the order of their positions; H or OH if unused. Non-standard residues stand in square brackets, D forms with d. Residues, ends and D or L forms follow the SMILES beside them. No end group written: not given here. *: point of attachment. Glyψ(1,4-Tz)Leu = CC(C)C[C@@H](C(=O)[*:2])n1cc(CN[*:1])nn1; γGlu = O=C(O)[C@H](CCC(=O)[*:2])N[*:1]; Arg(Me) = CNC(=N)NCCC[C@H](N)C(=O)O; Palmitoyl = CCCCCCCCCCCCCCCC(=O)*
How the values were obtained:
hKiSS1R = target: T1, hKiSS1R (Homo sapiens, UniProt Q969F8); experiment: intracellular Ca2+ mobilization assay (Fluo4 NW) in KiSS1R-transfected HEK293A cells; type: cell-based; conditions: for EC50: SEM
T1 construct: expressed in transfected cells; host or cells: HEK293A
Text: Figure 1 Chemical structures and half maximal effective concentration (mean ± SEM, N = 3) of kisspeptin 10 and analogs C2–C7 as measured in a calcium mobilization assay in KiSS1R-transfected HEK293 cell line. Ac: acetyl; Palm-γ-Glu: N-palmitoylated-γ-glutamate, Tz: Triazole; Me: Methyl. TEXT PRINTED IN THE PICTURE: Kp10 1: EC50 (nM): 2.6 ± 2.2 | 2: EC50 (nM): 0.07 ± 0.06 | 3: EC50 (nM): 1.6 ± 0.2 | 4: EC50 (nM): 216 ± 110 | 5: EC50 (nM): 0.22 ± 0.33 | 6: EC50 (nM): 0.33 ± 0.24 | 7: EC50 (nM): 0.04 ± 0.02
Receptor activation was monitored using Fluo4 NW Ca^2+ assay kit in HEK293A cells transfected with the hKiSS1R as previously described[11] (kind gift of professor N. de Roux, INSERM U690, Hôpital Robert Debré, Paris, France). Considering the type of analysis performed, assessment of second messenger activation of a heterologous expressed receptor, the use of potentially misidentified cells has no impact on the result. Basal fluorescence was measured with a plate reader (PolarStar Optima, BMG Labtech). Immediately after the basal reading, the test compound was added at different concentrations and the intracellular Ca^2+ dynamic monitored. To generate concentration activity curves, the mean basal value was subtracted from the value obtained after stimulation. The area under the curve (AUC) was calculated and plotted against concentrations. Concentration activity data points were fitted to sigmoidal curves generated by GraphPad Prism 5 and EC50 automatically calculated.

ewes [1] = experiment: LH surge / ovulation induction in ewes injected 24 h after flugestone acetate withdrawal (LH, FSH, progesterone); type: in vivo, ewe (Ile de France); conditions: 15 nmol/ewe im
Description: (§1) To induce an artificial luteal phase intact cyclic (October–December) or anestrus acyclic (March–June) ewes were implanted with vaginal sponge containing FA (Chronogest, Intervet), a progesterone analog, for 14 days. To compare the activity of Kp, C3, C5 and C6 injection of test drug was performed during the treatment with FA. For the experiments of synchronization and induction of ovulation 24 hours before drug injection the vaginal sponge was removed and the same day a catheter (ID 1.0, L 52 mm, Intraflon 2, Vygon, France) was inserted in the jugular vein. On the day of experiment the test compound was injected intramuscularly and blood samples (2 mL) were taken at various time intervals post-injection: every10 minutes for the first hour, every 20 minutes from 2 to 6 hours, every 60 minutes from 6 to 10 hours and every 120 minutes from 10 hours to the end of the experiment). Data are expressed as means ± SEM (N = 6–12 per group, for details on group size see figure legends).
Plasma LH concentrations in ewe were measured using previously described radioimmunoassays. […] Plasma FSH levels were measured using the reagents supplied by Tucker Endocrine Research Institute (Atlanta, Georgia, USA). […]
Progesterone was measured by an ELISA assay on 96-well plate (Immuno Nunc Maxisorp C96) coated with goat anti-mouse IgG (Uptima UP462140, Interchim) overnight at 4 °C. […]

ewes [2] = experiment: LH plasma concentration in ewes during artificial luteal phase (under flugestone acetate), intramuscular injection; type: in vivo, ewe (Ile de France); conditions: 15 nmol/ewe im, breeding season, ewes under FA treatment, N = 6
Description: as §1
Plasma LH concentrations in ewe were measured using previously described radioimmunoassays. The assay standard was 1055-CY-LH (equivalent to 2.2 NIH-LH-S1). Intra-assay coefficient of variation averaged 9% and assay sensitivity was 0.2 ± 0.05 ng/mL. Plasma FSH levels were measured using the reagents supplied by Tucker Endocrine Research Institute (Atlanta, Georgia, USA). […]

KiSS1R KO mice = experiment: circulating LH concentration in KiSS1R KO mice; type: in vivo, mouse
Description: Adult male and female KiSS1R KO mice[41] were primed by 5 ip injections of 40 ng/100 μL GnRH at 30 minute intervals and an equivalent volume of saline was injected to wild type mice. This protocol allows the pituitary gland to become more responsive to GnRH in this mouse line as previously reported. Blood samples (4 μL) were collected from the tail tip as previously described, before the first, third and fifth injection, and 30, 105 and 125 minutes after the last injection. C6 was injected immediately after the last blood sampling (0.3 nmoles/200 μL, a dose established in a preliminary experiment) and blood samples taken 20, 40, 60, 90, 120, 180, 300 minutes following injection. After 300 minutes a further injection of GnRH (40 ng/100 μL) was performed in KiSS1R KO mice, and a final blood sample was taken 30 minutes later to confirm the functionality of the HPG axis. Whole blood samples were collected in 150 μL of 0.1 M PBS-0.05% Tween20, mixed and moved to dry ice at the end of each sampling round. Experiments were conducted during the first 8 hours of the light phase to avoid any endogenous LH surges associated with the preovulatory stage of the female reproductive cycle. Data are expressed as means ± SEM (N = 4–7 per group, for details on group size see figure legends).
A sandwich ELISA, adapted from Steyn et al.[42], was used to measure LH concentration in mice. Monoclonal bovine LHβ 518 B7 (1:1,000 dilution) was used as the capture antibody (obtained from Lillian Sibley at University of California Davis), and the standard was NIDDK mouse LH reference preparation from AF Parlow (AFP5306A mouse RIA kit). The assay sensitivity was 0.2 ng/mL and the mean intra-assay coefficient of variation averaged 11%.

[3] = KiSS1R-transfected HEK293 cell line, Fluo4 NW, AUC fitted, mean ± SEM, N = 3, read-out: EC50, calcium mobilization
[4] = 40 ng GnRH 300 min after C6, sample 30 min later
[5] = 5 ip injections of 40 ng GnRH at 30 min intervals, 15 minutes post injection

T1 sequence (Q969F8 whole entry): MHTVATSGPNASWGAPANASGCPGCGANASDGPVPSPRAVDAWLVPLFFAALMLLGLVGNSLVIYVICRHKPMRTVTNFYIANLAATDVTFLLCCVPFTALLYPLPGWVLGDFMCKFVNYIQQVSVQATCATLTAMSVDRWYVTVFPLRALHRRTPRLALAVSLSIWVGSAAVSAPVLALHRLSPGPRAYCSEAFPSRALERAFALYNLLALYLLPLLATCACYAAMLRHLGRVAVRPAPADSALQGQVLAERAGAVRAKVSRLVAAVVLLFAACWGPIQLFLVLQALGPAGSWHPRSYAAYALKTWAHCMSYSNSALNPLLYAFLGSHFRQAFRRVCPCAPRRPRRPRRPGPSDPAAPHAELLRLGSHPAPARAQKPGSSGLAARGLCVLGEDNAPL

CCCCCCCCCCCCCCCC(=O)N[C@@H](CCC(=O)N[C@@H](Cc1ccc(O)cc1)C(=O)N[C@@H](CC(N)=O)C(=O)N[C@@H](Cc1c[nH]c2ccccc12)C(=O)N[C@@H](CC(N)=O)C(=O)N[C@@H](CO)C(=O)N[C@@H](Cc1ccccc1)C(=O)NCc1cn([C@@H](CC(C)C)C(=O)N[C@@H](CCCNC(=N)N)C(=O)N[C@@H](Cc2ccc(O)cc2)C(N)=O)nn1)C(=O)O [C5] ({Palmitoyl-γGlu}-YNWNSF[Glyψ(1,4-Tz)Leu]RY-NH2)
EC50 (hKiSS1R; [3]): 0.22 ± 0.33 nM

YNWNSFGLRY-NH2 [Kp10]
effect on LH plasma concentration, non-breeding season (ewes [1]; 24 h after ending FA treatment, N = 6): no increase | progesterone level (ewes [1]; non-breeding season, 1 ng mL^−1 threshold = ovulation hallmark): < 1 ng/mL | EC50 (hKiSS1R; [3]): 2.6 ± 2.2 nM | effect on LH plasma concentration (ewes [2]): negligible effect; also recorded: no effect on LH basal level

CCCCCCCCCCCCCCCC(=O)N[C@@H](CCC(=O)N[C@@H](Cc1ccc(O)cc1)C(=O)N[C@@H](CC(N)=O)C(=O)N[C@@H](Cc1c[nH]c2ccccc12)C(=O)N[C@@H](CC(N)=O)C(=O)N[C@@H](CO)C(=O)N[C@@H](Cc1ccccc1)C(=O)NCc1cn([C@@H](CC(C)C)C(=O)N[C@@H](CCCNC(=N)NC)C(=O)N[C@@H](Cc2ccc(O)cc2)C(N)=O)nn1)C(=O)O [C6] ({Palmitoyl-γGlu}-YNWNSF[Glyψ(1,4-Tz)Leu][Arg(Me)]Y-NH2)
enhancement in EC50 compared to C3 (hKiSS1R; C6 versus first generation analog C3): ~ 5 fold | EC50 (hKiSS1R): 0.33 ± 0.24 nM

CNC(=N)NCCC[C@H](NC(=O)[C@H](CC(C)C)n1cc(CNC(=O)[C@H](Cc2ccccc2)NC(=O)[C@H](CO)NC(=O)[C@H](CC(N)=O)NC(=O)[C@H](Cc2c[nH]c3ccccc23)NC(=O)[C@H](CC(N)=O)NC(=O)[C@H](Cc2ccc(O)cc2)NC(C)=O)nn1)C(=O)N[C@@H](Cc1ccc(O)cc1)C(N)=O [C7] (Ac-YNWNSF[Glyψ(1,4-Tz)Leu][Arg(Me)]Y-NH2)
EC50 (hKiSS1R; [3]): 0.04 ± 0.02 nM

gonadotropin releasing hormone (QHWSYGLRPG; ends and bridges not checked; UniProt P13562 22-31, looked up) [GnRH, hormone injected ip to prime KiSS1R KO mice and check pituitary function]
LH after further GnRH injection at end of experiment, KO females (KiSS1R KO mice; [4]): 4.8 ± 1.9 ng/mL | LH after further GnRH injection at end of experiment, KO males (KiSS1R KO mice; [4]): 3.2 ± 0.4 ng/mL | LH after GnRH priming, KO females (KiSS1R KO mice; [5]): 2.3 ± 0.8 ng/mL | LH after GnRH priming, KO males (KiSS1R KO mice; [5]): 2.7 ± 0.6 ng/mL | fold increase of circulating LH after GnRH priming (KiSS1R KO mice; KiSS1R KO mice, 15 minutes post injection): 3–6 fold

From PMC4887910, “A synthetic kisspeptin analog that triggers ovulation and advances puberty” (Scientific Reports, 2016)
